{"source": "patent US11833251B2", "about": "“Pharmaceutical methods and compositions” (THE UNIVERSITY OF SUSSEX, priority 2018, dated 2023)", "assay": "Saturation solubility test of propranolol in various solvents at 37° C.", "format": "physicochemical", "data": [{"smiles": "CC(C)NCC(O)COc1cccc2ccccc12", "note": "(centres unmarked) [Propranolol, propranolol]", "values": [{"measurement": "Mean concentration (mg/ml) ± SD", "setting": "propranolol in Kolliphor EL, 37° C., n = 3", "result": "1.32 ± 0.00", "unit": "mg/mL"}, {"measurement": "Mean concentration (mg/ml) ± SD", "setting": "propranolol in Tween 20, 37° C., n = 3", "result": "1.86 ± 0.00", "unit": "mg/mL"}, {"measurement": "Mean concentration (mg/ml) ± SD", "setting": "propranolol in Tween 80, 37° C., n = 3", "result": "1.89 ± 0.01", "unit": "mg/mL"}, {"measurement": "solubility thermodynamic", "setting": "propranolol in Water, 37° C., n = 3, read-out: Mean concentration (mg/ml) ± SD", "result": "29.03 ± 0.12", "unit": "mg/mL"}, {"measurement": "Inference", "setting": "solubility of propranolol in Kolliphor EL", "result": "Slightly soluble"}, {"measurement": "Inference", "setting": "solubility of propranolol in Tween 20", "result": "Slightly soluble"}, {"measurement": "Inference", "setting": "solubility of propranolol in Tween 80", "result": "Slightly soluble"}, {"measurement": "Inference", "setting": "solubility of propranolol in Water", "result": "Sparingly soluble"}]}]}
